Assay results taken from PMC3543460, “Structure-Activity Relationships of the Antimicrobial Peptide Arasin 1 — And Mode of Action Studies of the N-Terminal, Proline-Rich Region” (PLoS ONE, 2013).
Values after ≈ are worked out from the molar mass of the structure shown. Peptide text beside a SMILES is read from it. * marks the point of attachment. Acm = CC(=O)NC*

Key:
C. glutamicum ATCC 13032 = format: cell-based, Corynebacterium glutamicum; details: ATCC 13032, 24 h
Experimental: (§1) Escherichia coli (ATCC 25922), E. coli HB101, Pseudomonas aeruginosa (ATCC 27853), Staphylococcus aureus (ATCC 9144) and Corynebacterium glutamicum (ATCC 13032) were grown at 37°C in Mueller Hinton agar (MH; Difco Laboratories, Detroit, USA). The yeasts Candida albicans (ATCC 10231) and Saccharomyces cerevisiae spp and the mold Botrytis cinerea 101 [33] were cultivated on potato dextrose agar supplemented with 2% glucose at room temperature (RT).
(§2) Determination of the MIC against bacteria was performed by continuous monitoring of bacterial growth using a Bioscreen C microbiology reader (Labsystems Oy, Helsinki, Finland). The synthetic peptides were tested for antibacterial and antifungal activity at final concentrations (prepared from serial two-fold dilutions) ranging from 0.2 µM to 100 µM. The test was performed in 100-well flat-bottomed honeycomb plates, in which 50 µl peptide solution was incubated with 50 µl of a suspension of an actively growing culture of bacteria diluted to a starting concentration of 2.5×10^5 CFU/ml in Mueller Hinton Broth (MHB). The growth chamber was maintained at 37°C during the incubation period. The absorbance was measured by a turbidometric method with vertical light photometry and a wide band filter (420–580 nm). MIC was defined as the lowest concentration resulting in no visible bacterial growth after 24 h.

C. albicans ATCC 10231 = format: cell-based, Candida albicans; details: for IC50: ATCC 10231, 48 h; for IC50 C. albicans ATCC 10231: lowest concentration tested giving less than 50% visible growth vs growth control, potato dextrose medium, 37°C, 48 h, three individual experiments
Experimental: as §1
(§3) Fungal spores were dissolved in potato dextrose broth (Difco, Lawrence, KS, USA) and the cell concentration was determined and adjusted after counting in a Bürker chamber. Botrytis cinerea was filtered through a piece of cotton before counting. An aliquot of 50 µl of fungal spores (final concentration 2×10^5 spores/ml) were inoculated in 96-well Nunclon™ microtitre plates (Nagle Nunc Int. Roskilde, Denmark) along with 50 µl of synthetic peptide dissolved in Milli-Q water. Cultures were grown in a dark moist chamber without shaking at 20°C for S. cerevisiae and B. cinerea, and at 37°C for C. albicans. Growth inhibition was determined microscopically after 48 h of incubation. Inhibitory concentrations (IC50) was defined as the lowest concentration tested which yielded less than 50% visible growth compared to the growth control (fungi). Each peptide was tested in parallels in three individual runs for the antimicrobial assays.

E. coli ATCC 25922 = format: cell-based, Escherichia coli; details: ATCC 25922, 24 h
Experimental: as §1, §2

S. cerevisiae spp. = format: cell-based, Saccharomyces cerevisiae; details: 48 h
Experimental: as §1, §3

S. aureus ATCC 9144 = format: cell-based, Staphylococcus aureus; details: ATCC 9144, 24 h
Experimental: as §1, §2

B. cinerea 101 = format: cell-based, Botrytis cinerea; details: for IC50: 101, 48 h; for IC50 B. cinerea 101: lowest concentration tested giving less than 50% visible growth vs growth control, potato dextrose medium, 20°C, 48 h, three individual experiments
Experimental: as §1, §3

P. aeruginosa ATCC 27853 = format: cell-based, Pseudomonas aeruginosa; details: ATCC 27853, 24 h
Experimental: as §1, §2

E. coli HB101 = experiment: Antibacterial MIC assay (Bioscreen C growth monitoring); format: cell-based, Escherichia coli; details: lowest concentration with no visible bacterial growth after 24 h; 37°C, 50% MH, 2.5×10^5 cells/mL; representative of three individual experiments
Experimental: as §1, §2

| Compound | MIC C. glutamicum ATCC 13032 (C. glutamicum ATCC 13032) | IC50 (C. albicans ATCC 10231) | MIC E. coli ATCC 25922 (E. coli ATCC 25922) | IC50 (S. cerevisiae spp.) | MIC S. aureus ATCC 9144 (S. aureus ATCC 9144) | IC50 (B. cinerea 101) | MIC P. aeruginosa ATCC 27853 (P. aeruginosa ATCC 27853) | IC50 C. albicans ATCC 10231 (C. albicans ATCC 10231) | MIC E. coli HB101 (E. coli HB101) | IC50 B. cinerea 101 (B. cinerea 101) |
| --- | --- | --- | --- | --- | --- | --- | --- | --- | --- | --- |
| N=C(N)NCCC[C@H](NC(=O)[C@@H](N)CO)C(=O)N[C@@H](Cc1c[nH]c2ccccc12)C(=O)N1CCC[C@H]1C(=O)N[C@@H](CO)C(=O)N1CCC[C@H]1C(=O)NCC(=O)N[C@@H](CCCNC(=N)N)C(=O)N1CCC[C@H]1C(=O)N[C@@H](CCCNC(=N)N)C(=O)N1CCC[C@H]1C(=O)N[C@@H](Cc1ccccc1)C(=O)N1CCC[C@H]1C(=O)NCC(=O)O [Arasin 1(1–14)] (H-SRWPSPGRPRPFPG-OH; N-terminus and C-terminus assumed) | >100 µM | > 100 µM | >100 µM | > 100 µM | >100 µM | > 100 µM | >100 µM |  |  |  |
| CC[C@H](C)[C@H](NC(=O)[C@@H]1CCCN1C(=O)[C@H](CCCCN)NC(=O)[C@@H]1CCCN1C(=O)[C@H](CCCNC(=N)N)NC(=O)CNC(=O)[C@@H]1CCCN1C(=O)[C@H](Cc1ccccc1)NC(=O)[C@@H]1CCCN1C(=O)[C@H](CCCNC(=N)N)NC(=O)[C@@H]1CCCN1C(=O)[C@H](CCCNC(=N)N)NC(=O)CNC(=O)[C@@H]1CCCN1C(=O)[C@H](CO)NC(=O)[C@@H]1CCCN1C(=O)[C@H](Cc1c[nH]c2ccccc12)NC(=O)[C@H](CCCNC(=N)N)NC(=O)[C@@H](N)CO)C(=O)N[C@@H](Cc1ccccc1)C(=O)O [Arasin 1(1–20)] (H-SRWPSPGRPRPFPGRPKPIF-OH; N-terminus and C-terminus assumed) | 12.5 to 25 µM |  | >100 µM | 25 µM | >100 µM | 25 to 50 µM | >100 µM | 50 µM |  |  |
| CC[C@H](C)[C@H](NC(=O)[C@@H]1CCCN1C(=O)[C@H](CCCCN)NC(=O)[C@@H]1CCCN1C(=O)[C@H](CCCNC(=N)N)NC(=O)CNC(=O)[C@@H]1CCCN1C(=O)[C@H](Cc1ccccc1)NC(=O)[C@@H]1CCCN1C(=O)[C@H](CCCNC(=N)N)NC(=O)[C@@H]1CCCN1C(=O)[C@H](CCCNC(=N)N)NC(=O)CNC(=O)[C@@H]1CCCN1C(=O)[C@H](CO)NC(=O)[C@@H]1CCCN1C(=O)[C@@H](N)Cc1c[nH]c2ccccc12)C(=O)N[C@@H](Cc1ccccc1)C(=O)N[C@@H](CCCNC(=N)N)C(=O)N1CCC[C@H]1C(=O)N[C@@H](CCCNC(=N)N)C(N)=O [Arasin 1(3–23)] (H-WPSPGRPRPFPGRPKPIFRPR-NH2; N-terminus assumed) | 3.1 µM (≈ 7.74 µg/mL) | 25 µM | 25 to 50 µM | 12.5 µM | >100 µM | 25 µM | 100 µM (≈ 250 µg/mL) |  | 12.5 µM (≈ 31.2 µg/mL) |  |
| CC[C@H](C)[C@H](NC(=O)[C@@H]1CCCN1C(=O)[C@H](CCCCN)NC(=O)[C@@H]1CCCN1C(=O)[C@H](CCCNC(=N)N)NC(=O)CNC(=O)[C@@H]1CCCN1C(=O)[C@H](Cc1ccccc1)NC(=O)[C@@H]1CCCN1C(=O)[C@H](CCCNC(=N)N)NC(=O)[C@@H]1CCCN1C(=O)[C@H](CCCNC(=N)N)NC(=O)CNC(=O)[C@@H]1CCCN1C(=O)[C@@H](N)CO)C(=O)N[C@@H](Cc1ccccc1)C(=O)N[C@@H](CCCNC(=N)N)C(=O)N1CCC[C@H]1C(=O)N[C@@H](CCCNC(=N)N)C(N)=O [Arasin 1(5–23)] (H-SPGRPRPFPGRPKPIFRPR-NH2; N-terminus assumed) | 6.3 µM (≈ 14 µg/mL) | 25 µM | >100 µM | 12.5 µM | >100 µM | 25 µM | >100 µM |  | 100 µM (≈ 221 µg/mL) |  |
| CC[C@H](C)[C@H](NC(=O)[C@@H]1CCCN1C(=O)[C@H](CCCCN)NC(=O)[C@@H]1CCCN1C(=O)[C@H](CCCNC(=N)N)NC(=O)CNC(=O)[C@@H]1CCCN1C(=O)[C@H](Cc1ccccc1)NC(=O)[C@@H]1CCCN1C(=O)[C@H](CCCNC(=N)N)NC(=O)[C@@H]1CCCN1C(=O)[C@H](CCCNC(=N)N)NC(=O)CN)C(=O)N[C@@H](Cc1ccccc1)C(=O)N[C@@H](CCCNC(=N)N)C(=O)N1CCC[C@H]1C(=O)N[C@@H](CCCNC(=N)N)C(N)=O [Arasin 1(7–23)] (H-GRPRPFPGRPKPIFRPR-NH2; N-terminus assumed) | 3.1 µM (≈ 6.29 µg/mL) | 25 µM | 50 to 100 µM | 12.5 µM | >100 µM |  | 50 to 100 µM |  | 25 µM (≈ 50.8 µg/mL) | 50 µM |
| CC[C@H](C)[C@H](NC(=O)[C@@H]1CCCN1C(=O)[C@H](CCCCN)NC(=O)[C@@H]1CCCN1C(=O)[C@H](CCCNC(=N)N)NC(=O)CNC(=O)[C@@H]1CCCN1C(=O)[C@H](Cc1ccccc1)NC(=O)[C@@H]1CCCN1C(=O)[C@H](CCCNC(=N)N)NC(=O)[C@@H]1CCCN1)C(=O)N[C@@H](Cc1ccccc1)C(=O)N[C@@H](CCCNC(=N)N)C(=O)N1CCC[C@H]1C(=O)N[C@@H](CCCNC(=N)N)C(N)=O [Arasin 1(9–23)] (H-PRPFPGRPKPIFRPR-NH2; N-terminus assumed) | 12.5 µM (≈ 22.7 µg/mL) |  | >100 µM | 25 µM | >100 µM |  | >100 µM | 50 µM | 100 µM (≈ 182 µg/mL) | 50 µM |
| CC[C@H](C)[C@H](NC(=O)[C@@H]1CCCN1C(=O)[C@H](CCCCN)NC(=O)[C@@H]1CCCN1C(=O)[C@H](CCCNC(=N)N)NC(=O)CNC(=O)[C@@H]1CCCN1C(=O)[C@H](Cc1ccccc1)NC(=O)[C@@H]1CCCN1C(=O)[C@H](CCCNC(=N)N)NC(=O)[C@@H]1CCCN1C(=O)[C@H](CCCNC(=N)N)NC(=O)CNC(=O)[C@@H]1CCCN1C(=O)[C@H](CO)NC(=O)[C@@H]1CCCN1C(=O)[C@H](Cc1c[nH]c2ccccc12)NC(=O)[C@H](CCCNC(=N)N)NC(=O)[C@@H](N)CO)C(=O)N[C@@H](Cc1ccccc1)C(=O)N[C@@H](CCCNC(=N)N)C(=O)N1CCC[C@H]1C(=O)N[C@@H](CCCNC(=N)N)C(=O)N1CCC[C@H]1C(=O)N[C@@H](CSCNC(C)=O)C(=O)N[C@@H](CC(N)=O)C(=O)N[C@@H](CSCNC(C)=O)C(=O)N[C@@H](Cc1ccc(O)cc1)C(=O)N[C@@H](C)C(=O)N1CCC[C@H]1C(=O)N1CCC[C@H]1C(=O)N[C@@H](CSCNC(C)=O)C(=O)N1CCC[C@H]1C(=O)N[C@@H](CSCNC(C)=O)C(=O)N[C@@H](CC(=O)O)C(=O)N[C@@H](CCCNC(=N)N)C(=O)N[C@@H](Cc1c[nH]c2ccccc12)C(=O)O [Arasin 1-Acm] (H-SRWPSPGRPRPFPGRPKPIFRPRPC(Acm)NC(Acm)YAPPC(Acm)PC(Acm)DRW-OH; N-terminus and C-terminus assumed) | 0.8 µM (≈ 3.71 µg/mL) | 25 µM | 25 to 50 µM | 12.5 µM | >100 µM | 12.5 to 50 µM | 100 µM (≈ 463 µg/mL) |  |  |  |
